From patent publication US10189842B2 (Agency for Science, Technology and Research, priority 2013, dated 2019)
pIC50: −log10 of the molar value.

Each compound was assayed on HEK293-STF3A cells (assay: STF3A assay (luciferase reporter)). Settings: Homo sapiens, 24 h, 1 day of treatment.
Type: cell-based, Human
From the text: HEK293-STF cell line was modified from Human embryonic kidney cell line HEK293 transfected with the STF reporter. HEK293-STF3A cell line was further modified from HEK293-STF cell line to express Wnt3A. This cell line was used to identify compounds that regulate either early or late signaling components of the Wnt pathway. These two cell lines were obtained from David Virshup's laboratory, Duke-NUS. L-Wnt3A (ATCC, #CRL-2647) cell line was used for providing Wnt3A conditioned media. The three cell lines were grown in DMEM with 10% FBS incubated in 37° C. with 5% CO2.
2×10^4 HEK293-STF3A cells in 75 μl culture media were seeded in each well of white 96 well plates (Greiner #655098) and incubated overnight at 37° C. 25 μl serially diluted compound was added to the cells to give final concentration of 50 μM to 1.5 nM. After 1 day of treatment, 100 μl of Steady-Glo Luciferase Assay reagent (#E2520, Promega) was added to each well and incubated for 10 minutes at room temperature. Luminescence was measured using Tecan Safire2 plate reader.

SMILES	pIC50
Cc1cc2n(n1)CCCN2C(=O)CCC(=O)Nc1ccc(C2CCN(C)CC2)cc1 [Compound 82, 4-(2-methyl-6,7-dihydropyrazolo[1,5-a]pyrimidin-4(5H)-yl)-N-(4-(1-methylpiperidin-4-yl)phenyl)-4-oxobutanamide]	< 5.00
Cc1cc2n(n1)CCCN2C(=O)CC(C)C(=O)Nc1ccc(-c2ccccc2)nn1 (centres unmarked) [Compound 146, 2-methyl-4-(2-methyl-6,7-dihydropyrazolo[1,5-a]pyrimidin-4(5H)-yl)-4-oxo-N-(6-phenylpyridazin-3-yl)butanamide]	> 7.00
Cc1cc2n(n1)C[C@@H](C)CN2C(=O)CCC(=O)Nc1ccc(-c2cccnc2)cn1 [Compound 169, N-(3,3′-bipyridin-6-yl)-4-(2,6-dimethyl-6,7-dihydropyrazolo[1,5-a]pyrimidin-4(5H)-yl)-4-oxobutanamide]	> 7.00
Cc1cc2n(n1)CCCN2C(=O)CCC(=O)Nc1ccc(-c2cncc(F)c2)nc1 [Compound 109, N-(5′-fluoro-[2,3′-bipyridin]-5-yl)-4-(2-methyl-6,7-dihydropyrazolo[1,5-a]pyrimidin-4(5H)-yl)-4-oxobutanamide]	> 7.00
Cc1cc2n(n1)CCCN2C(=O)CCC(=O)Nc1ccc(-c2ccccc2F)cc1 [Compound 64, N-(2′-fluoro-[1,1′-biphenyl]-4-yl)-4-(2-methyl-6,7-dihydropyrazolo[1,5-a]pyrimidin-4(5H)-yl)-4-oxobutanamide]	> 7.00
Cc1cccc(-c2ccc(NC(=O)CCC(=O)N3CCCn4nc(C)cc43)nc2)n1 [Compound 96, 4-(2-methyl-6,7-dihydropyrazolo[1,5-a]pyrimidin-4(5H)-yl)-N-(6-methyl-[2,3′-bipyridin]-6′-yl)-4-oxobutanamide]	> 7.00
Cc1cncc(-c2ccc(NC(=O)CCC(=O)N3CC(C)Cn4nc(C)cc43)nc2)c1 (centres unmarked) [Compound 142, 4-(2,6-dimethyl-6,7-dihydropyrazolo[1,5-a]pyrimidin-4(5H)-yl)-N-(5′-methyl-[3,3′-bipyridin]-6-yl)-4-oxobutanamide]	> 7.00
Cc1cc2n(n1)CCCN2C(=O)CCC(=O)Nc1ccc(-c2cccnc2)nc1 [Compound 48, N-([2,3′-bipyridin]-5-yl)-4-(2-methyl-6,7-dihydropyrazolo[1,5-a]pyrimidin-4(5H)-yl)-4-oxobutanamide]	> 7.00
Cc1cncc(-c2ccc(NC(=O)C(C)CC(=O)N3CCCn4nc(C)cc43)cn2)c1 (centres unmarked) [Compound 150, 2-methyl-4-(2-methyl-6,7-dihydropyrazolo[1,5-a]pyrimidin-4(5H)-yl)-N-(5′-methyl-[2,3′-bipyridin]-5-yl)-4-oxobutanamide]	> 7.00
Cc1cc2n(n1)CCCN2C(=O)CCC(=O)Nc1ccc(-c2cnccn2)cc1 [Compound 129, 4-(2-methyl-6,7-dihydropyrazolo[1,5-a]pyrimidin-4(5H)-yl)-4-oxo-N-(4-(pyrazin-2-yl)phenyl)butanamide]	> 7.00
Cc1cc2n(n1)CCCN2C(=O)CCC(=O)Nc1cc(-c2cccc(F)c2)no1 [Compound 8, N-(3-(3-fluorophenyl)isoxazol-5-yl)-4-(2-methyl-6,7-dihydropyrazolo[1,5-a]pyrimidin-4(5H)-yl)-4-oxobutanamide]	> 7.00
Cc1cc2n(n1)CCCN2C(=O)CC(C)C(=O)Nc1ccc(-c2cccnc2)nn1 (centres unmarked) [Compound 155]	> 7.00
Cc1cc2n(n1)CCCN2C(=O)CCC(=O)Nc1ccc(-c2cccc(Cl)c2)nc1 [Compound 83, N-(6-(3-chlorophenyl)pyridin-3-yl)-4-(2-methyl-6,7-dihydropyrazolo[1,5-a]pyrimidin-4(5H)-yl)-4-oxobutanamide]	> 7.00
Cc1cc2n(n1)CCCN2C(=O)CCC(=O)Nc1ccc(-c2ccccc2)c(F)c1 [Compound 57, N-(2-fluorobiphenyl-4-yl)-4-(2-methyl-6,7-dihydropyrazolo[1,5-a]pyrimidin-4(5H)-yl)-4-oxobutanamide]	> 7.00
Cc1cc2n(n1)CCCN2CCCCNc1cc(-c2cccc(Cl)c2)no1 [Compound 131, 3-(3-chlorophenyl)-N-(4-(2-methyl-6,7-dihydropyrazolo[1,5-a]pyrimidin-4(5H)-yl)butyl)isoxazol-5-amine]	< 5.00
Cc1cc2n(n1)CCCN2C(=O)CCC(=O)Nc1ccc(-c2ccncc2)cc1 [Compound 36, 4-(2-methyl-6,7-dihydropyrazolo[1,5-a]pyrimidin-4(5H)-yl)-4-oxo-N-(4-(pyridin-4-yl)phenyl)butanamide]	> 6.00
Cc1ccc(-c2ccc(NC(=O)CCC(=O)N3CCCn4nc(C)cc43)nc2)cn1 [Compound 121, N-(6′-methyl-3,3′-bipyridin-6-yl)-4-(2-methyl-6,7-dihydropyrazolo[1,5-a]pyrimidin-4(5H)-yl)-4-oxobutanamide]	> 7.00
Cc1cc2n(n1)CCCN2C(=O)CCC(=O)Nc1cc(-c2cccc(Cl)c2)nn1C [Compound 21, N-(3-(3-chlorophenyl)-1-methyl-1H-pyrazol-5-yl)-4-(2-methyl-6,7-dihydropyrazolo[1,5-a]pyrimidin-4(5H)-yl)-4-oxobutanamide]	< 5.00
COc1ccccc1-c1ccc(NC(=O)CCC(=O)N2CCCn3nc(C)cc32)cc1 [Compound 61, N-(2′-methoxy-[1,1′-biphenyl]-4-yl)-4-(2-methyl-6,7-dihydropyrazolo[1,5-a]pyrimidin-4(5H)-yl)-4-oxobutanamide]	< 5.00
Cc1cc2n(n1)CC(C)CN2C(=O)CCC(=O)Nc1ccc(-c2ccc(F)cn2)cn1 (centres unmarked) [Compound 164, 4-(2,6-dimethyl-6,7-dihydropyrazolo[1,5-a]pyrimidin-4(5H)-yl)-N-(5-fluoro-[2,3′-bipyridin]-6′-yl)-4-oxobutanamide]	> 6.00
Cc1cc2n(n1)CCCN2C(=O)CCC(=O)Nc1ccc(C(C)(C)C)cc1 [Compound 30, N-(4-(tert-butyl)phenyl)-4-(2-methyl-6,7-dihydropyrazolo[1,5-a]pyrimidin-4(5H)-yl)-4-oxobutanamide]	< 5.00
Cc1cc2n(n1)CCCN2C(=O)CCC(=O)Nc1ccc(-c2ccc(F)cc2)nn1 [Compound 101, N-(6-(4-fluorophenyl)pyridazin-3-yl)-4-(2-methyl-6,7-dihydropyrazolo[1,5-a]pyrimidin-4(5H)-yl)-4-oxobutanamide]	> 7.00
Cc1cc2n(n1)CCCN2C(=O)CCC(=O)Nc1ccc(-c2ccccc2N)cc1 [Compound 69, N-(2′-amino-[1,1′-biphenyl]-4-yl)-4-(2-methyl-6,7-dihydropyrazolo[1,5-a]pyrimidin-4(5H)-yl)-4-oxobutanamide]	> 6.00
Cc1cc2n(n1)CCCN2C(=O)CCC(=O)Nc1ccc(-c2cccc(N)c2)cc1 [Compound 70, N-(3′-amino-[1,1′-biphenyl]-4-yl)-4-(2-methyl-6,7-dihydropyrazolo[1,5-a]pyrimidin-4(5H)-yl)-4-oxobutanamide]	> 7.00
Cc1cc2n(n1)CCCN2C(=O)CCC(=O)Nc1cnc(-c2ccccc2)cn1 [Compound 47, 4-(2-methyl-6,7-dihydropyrazolo[1,5-a]pyrimidin-4(5H)-yl)-4-oxo-N-(5-phenylpyrazin-2-yl)butanamide]	> 7.00
Cc1cncc(-c2cnc(NC(=O)CCC(=O)N3CCCn4nc(C)cc43)cn2)c1 [Compound 124, 4-(2-methyl-6,7-dihydropyrazolo[1,5-a]pyrimidin-4(5H)-yl)-N-(5-(5-methylpyridin-3-yl)pyrazin-2-yl)-4-oxobutanamide]	> 7.00
